Measured values reported in patent US10988523B2, “Modified lipidated Relaxin B chain peptides and their therapeutic use” (Sanofi, priority 2018, dated 2021).
*1 amine or outer side, *2 acyl side, *3 side chain or, on linkers, in order; H or OH if unused. Where a SMILES comes first, the peptide text is derived from it. Side-chain parts run from the residue outwards. [ ]: non-standard residue; d: D form. The star is where a group is joined. X12 = CCCCCCCCCCCCCCCC(=O)N[C@@H](CCC(=O)N[C@@H](CCC(=O)N[C@@H](CCC(=O)NCCCC[C@H](NC(=O)COCC(=O)NCCCOCCOCCOCCCNC(=O)COCC(=O)NCCCOCCOCCOCCCN*)C(N)=O)C(=O)O)C(=O)O)C(=O)O; PEG12 = NCCOCCOCCOCCOCCOCCOCCOCCOCCOCCOCCOCCOCCC(=O)O; γGlu = O=C(O)[C@H](CCC(=O)[*:2])N[*:1]; Stearoyl = CCCCCCCCCCCCCCCCCC(=O)*; Palmitoyl = CCCCCCCCCCCCCCCC(=O)*; Nle = CCCC[C@H](N)C(=O)O; AEEA = NCCOCCOCC(=O)O; Aib = CC(C)(N)C(=O)O

Biological target: T1, RXFP1 (Homo sapiens, UniProt Q9HBX9)
T1 construct: OVCAR5 cells expressing endogenous RXFP1; endogenous in cells; host or cells: OVCAR5 cells
T1 sequence (Q9HBX9 1-757): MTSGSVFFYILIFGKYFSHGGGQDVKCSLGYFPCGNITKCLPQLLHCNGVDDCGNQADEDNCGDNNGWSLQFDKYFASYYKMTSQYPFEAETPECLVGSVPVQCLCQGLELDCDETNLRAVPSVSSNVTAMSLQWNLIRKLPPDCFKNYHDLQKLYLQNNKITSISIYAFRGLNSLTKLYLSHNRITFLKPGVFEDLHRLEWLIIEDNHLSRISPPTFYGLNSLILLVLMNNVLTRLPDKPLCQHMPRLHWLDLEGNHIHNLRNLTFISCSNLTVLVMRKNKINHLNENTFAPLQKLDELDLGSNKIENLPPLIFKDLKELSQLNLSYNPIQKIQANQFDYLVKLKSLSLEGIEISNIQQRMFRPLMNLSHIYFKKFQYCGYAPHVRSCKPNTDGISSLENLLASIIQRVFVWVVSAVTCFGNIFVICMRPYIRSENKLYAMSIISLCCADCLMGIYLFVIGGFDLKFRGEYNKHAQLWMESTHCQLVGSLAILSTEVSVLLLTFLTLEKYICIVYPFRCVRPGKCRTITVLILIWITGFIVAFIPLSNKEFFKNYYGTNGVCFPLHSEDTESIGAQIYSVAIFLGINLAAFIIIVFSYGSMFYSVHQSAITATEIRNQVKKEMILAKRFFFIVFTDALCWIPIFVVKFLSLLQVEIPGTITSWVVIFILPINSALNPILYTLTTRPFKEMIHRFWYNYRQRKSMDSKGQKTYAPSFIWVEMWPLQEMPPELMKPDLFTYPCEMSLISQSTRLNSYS
Assay: OVCAR5 cAMP assay (HTRF), RXFP1 agonist activity
Type: cell-based
Conditions: OVCAR-5; maximal cAMP relative to H2-relaxin maximum (100%); read-out: EMax, OVCAR 5 cells (cAMP)
In short: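 OVCAR5 cells (endogenous RXFP1) pretreated 40 min at 37° C with 1 mM IBMX, then exposed to peptides in serum-free medium for 30 min at 37° C. Lysate cAMP read by HTRF; EC50 from variable-slope sigmoidal fit; Emax as % of H2-relaxin maximal cAMP in same run.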

| Emax [%] | Compound |
| --- | --- |
| 91 | CCCCCCCCCCCCCCCC(=O)N[C@@H](CCC(=O)N[C@@H](CCC(=O)N[C@@H](CCC(=O)NCCCC[C@H](NC(=O)COCC(=O)NCCCOCCOCCOCCCNC(=O)COCC(=O)NCCCOCCOCCOCCCNC(=O)[C@H](CCCCNC(C)=O)NC(=O)[C@H](CCCCN)NC(=O)[C@H](CCCNC(=N)N)NC(=O)C(C)(C)NC(=O)[C@H](CO)NC(=O)[C@H](Cc1c[nH]c2ccccc12)NC(=O)[C@@H](NC(=O)[C@H](CO)NC(=O)[C@H](CCC(N)=O)NC(=O)CNC(=O)[C@H](CCC(=O)O)NC(=O)C(C)(C)NC(=O)C(C)(C)NC(=O)[C@@H](NC(=O)[C@H](CCC(N)=O)NC(=O)[C@H](C)NC(=O)[C@H](CCCNC(=N)N)NC(=O)[C@@H](NC(=O)[C@H](CCCCN)NC(=O)[C@H](CCC(=O)O)NC(=O)[C@H](CCCNC(=N)N)NC(=O)CNC(=O)[C@H](CCC(=O)O)NC(=O)[C@H](CC(C)C)NC(C)=O)C(C)C)[C@@H](C)CC)[C@@H](C)O)C(N)=O)C(=O)O)C(=O)O)C(=O)O [compound 177] (Ac-LEGREKVRAQI[Aib][Aib]EGQSTWS[Aib]RKK(Ac)-X12) |
| 89 | CCCCCCCCCCCCCCCCCC(=O)N[C@@H](CCC(=O)N[C@@H](CCC(=O)N[C@@H](CCC(=O)NCCOCCOCC(=O)NCCOCCOCC(=O)NCCOCCOCC(=O)NCCCC[C@H](NC(=O)[C@H](CCCCNC(C)=O)NC(=O)[C@H](CCCCN)NC(=O)[C@H](CCCNC(=N)N)NC(=O)C(C)(C)NC(=O)[C@H](CO)NC(=O)[C@H](Cc1c[nH]c2ccccc12)NC(=O)[C@@H](NC(=O)[C@H](CO)NC(=O)[C@H](CCC(N)=O)NC(=O)CNC(=O)[C@H](CCC(=O)O)NC(=O)C(C)(C)NC(=O)C(C)(C)NC(=O)[C@@H](NC(=O)[C@H](CCCCNC(C)=O)NC(=O)[C@H](C)NC(=O)[C@H](CCCNC(=N)N)NC(=O)[C@@H](NC(=O)[C@H](CCCCN)NC(=O)[C@H](CCC(=O)O)NC(=O)[C@H](CCCNC(=N)N)NC(=O)CNC(=O)[C@H](CCC(=O)O)NC(=O)[C@H](CC(C)C)NC(C)=O)C(C)C)[C@@H](C)CC)[C@@H](C)O)C(N)=O)C(=O)O)C(=O)O)C(=O)O [compound 113] (Ac-LEGREKVRAK(Ac)I[Aib][Aib]EGQSTWS[Aib]RKK(Ac)K([AEEA-AEEA-AEEA-γGlu-γGlu-γGlu-Stearoyl])-NH2) |
| 105 | CCCCCCCCCCCCCCCC(=O)N[C@@H](CCC(=O)N[C@@H](CCC(=O)NCCCC[C@H](NC(=O)[C@H](CCCNC(=N)N)NC(=O)C(C)(C)NC(=O)[C@H](CO)NC(=O)[C@H](Cc1c[nH]c2ccccc12)NC(=O)[C@@H](NC(=O)[C@H](CO)NC(=O)[C@H](CCSC)NC(=O)CNC(=O)[C@H](CCC(=O)O)NC(=O)C(C)(C)NC(=O)C(C)(C)NC(=O)[C@@H](NC(=O)[C@H](CCC(N)=O)NC(=O)[C@H](C)NC(=O)[C@H](CCCNC(=N)N)NC(=O)[C@@H](NC(=O)[C@H](CCCCN)NC(=O)[C@H](CCC(=O)O)NC(=O)[C@H](CCCNC(=N)N)NC(=O)CNC(=O)[C@H](CCC(=O)O)NC(=O)[C@H](CC(C)C)NC(C)=O)C(C)C)[C@@H](C)CC)[C@@H](C)O)C(N)=O)C(=O)O)C(=O)O [compound 5] (Ac-LEGREKVRAQI[Aib][Aib]EGMSTWS[Aib]RK([γGlu-γGlu-Palmitoyl])-NH2) |
| 86 | CCCCCCCCCCCCCCCCCC(=O)N[C@@H](CCC(=O)N[C@@H](CCC(=O)N[C@@H](CCC(=O)NCCCC[C@H](NC(=O)CCOCCOCCOCCOCCOCCOCCOCCOCCOCCOCCOCCOCCNC(=O)[C@H](CCCCN)NC(=O)[C@H](CCCCN)NC(=O)[C@H](CCCNC(=N)N)NC(=O)C(C)(C)NC(=O)[C@H](CO)NC(=O)[C@H](Cc1c[nH]c2ccccc12)NC(=O)[C@@H](NC(=O)[C@H](CO)NC(=O)[C@H](CCCC)NC(=O)CNC(=O)[C@H](CCC(=O)O)NC(=O)C(C)(C)NC(=O)C(C)(C)NC(=O)[C@@H](NC(=O)[C@H](CCC(N)=O)NC(=O)[C@H](C)NC(=O)[C@H](CCCNC(=N)N)NC(=O)[C@@H](NC(=O)[C@H](CCCCN)NC(=O)[C@H](CCC(=O)O)NC(=O)[C@H](CCCNC(=N)N)NC(=O)CNC(=O)[C@H](CCC(=O)O)NC(=O)[C@H](CC(C)C)NC(C)=O)C(C)C)[C@@H](C)CC)[C@@H](C)O)C(N)=O)C(=O)O)C(=O)O)C(=O)O [compound 31] (Ac-LEGREKVRAQI[Aib][Aib]EG[Nle]STWS[Aib]RKK[PEG12]K([γGlu-γGlu-γGlu-Stearoyl])-NH2) |
